ChEMBL document CHEMBL1641519, “Discovery of MK-7246, a selective CRTH2 antagonist for the treatment of respiratory diseases” (Bioorg Med Chem Lett, 2011)

Experiments:
in vivo [1] = settings: Sprague-Dawley, rat
in vivo [2] = settings: Sprague-Dawley, rat, iv, 5 mg/kg
in vivo [3] = settings: Sprague-Dawley, rat, po, 10 mg/kg
[4] = Metabolic stability in cynomolgus monkey hepatocytes; format: ADME, cell-based, Macaca fascicularis, Hepatocyte
[5] = Metabolic stability in rhesus monkey hepatocytes; format: ADME, cell-based, Macaca mulatta, Hepatocyte
Hepatocyte [6] = test: Metabolic stability in Sprague-Dawley rat hepatocytes; format: ADME, cell-based
[7] = Metabolic stability in Beagle dog hepatocytes; format: ADME, cell-based, Canis lupus familiaris, Hepatocyte
Hepatocyte [8] = test: Metabolic stability in human hepatocytes; format: ADME, cell-based
[9] = Clearance in Beagle dog at 1 mg/kg, po and 0.5 mg/kg, iv; format: ADME, organism-based, Canis lupus familiaris; settings: in vivo
[10] = Oral bioavailability in Beagle dog at 1 mg/kg; format: ADME, organism-based, Canis lupus familiaris; settings: in vivo
[11] = Terminal half life in rhesus monkey at 1 mg/kg, po and 0.5 mg/kg, iv; format: ADME, organism-based, Macaca fascicularis; settings: cynomolgus monkey, in vivo
[12] = Volume of distribution at steady state in cynomolgus monkey at 1 mg/kg, po and 0.5 mg/kg, iv; format: ADME, organism-based, Macaca fascicularis; settings: in vivo, read-out: Vdss
[13] = Terminal half life in cynomolgus monkey at 1 mg/kg, po and 0.5 mg/kg, iv; format: ADME, organism-based, Macaca fascicularis; settings: in vivo
[14] = Oral bioavailability in rhesus monkey at 1 mg/kg; format: ADME, organism-based, Macaca mulatta; settings: in vivo
[15] = Volume of distribution at steady state in Beagle dog at 1 mg/kg, po and 0.5 mg/kg, iv; format: ADME, organism-based, Canis lupus familiaris; settings: in vivo, read-out: Vdss
[16] = Oral bioavailability in cynomolgus monkey at 1 mg/kg; format: ADME, organism-based, Macaca fascicularis; settings: in vivo
[17] = Volume of distribution at steady state in rhesus monkey at 1 mg/kg, po and 0.5 mg/kg, iv; format: ADME, organism-based, Macaca fascicularis; settings: cynomolgus monkey, in vivo, read-out: Vdss
[18] = Volume of distribution at steady state in Sprague-Dawley rat at 10 mg/kg, po and 5 mg/kg, iv; format: ADME, organism-based; settings: in vivo, read-out: Vdss
[19] = Clearance in rhesus monkey at 1 mg/kg, po and 0.5 mg/kg, iv; format: ADME, organism-based, Macaca fascicularis; settings: cynomolgus monkey, in vivo
[20] = Clearance in cynomolgus monkey at 1 mg/kg, po and 0.5 mg/kg, iv; format: ADME, organism-based, Macaca fascicularis; settings: in vivo
[21] = Terminal half life in Beagle dog at 1 mg/kg, po and 0.5 mg/kg, iv; format: ADME, organism-based, Canis lupus familiaris; settings: in vivo

SMILES	half-life (in vivo [1]) [h]	clearance (in vivo [2]) [mL/min/kg]	bioavailability (in vivo [3]) [%]	Stability [4]	Stability [5]	Stability (Hepatocyte [6])	Stability [7]	Stability (Hepatocyte [8])	further results
CN([C@@H]1CCc2c(CC(=O)O)c3cccc(F)c3n2C1)S(=O)(=O)c1ccc(F)cc1	16	0.4	62	–	–	–	–	–	–
CN([C@@H]1CCc2c(CC(=O)O[C@@H]3O[C@H](C(=O)O)[C@@H](O)[C@H](O)[C@H]3O)c3ccccc3n2C1)S(=O)(=O)c1ccc(F)cc1	–	–	–	Stable	Stable	Stable	Stable	Stable	–
CN([C@@H]1CCc2c(CC(=O)O)c3ccccc3n2C1)S(=O)(=O)c1ccc(F)cc1 [MK-7246]	5.6	2.2	107	Stable	Stable	Stable	Stable	Stable	clearance [9]: 15 mL/min/kg; bioavailability [10]: 5.6%; half-life [11]: 8.1 h; Vd [12]: 0.5 L/kg; half-life [13]: 11 h; bioavailability [14]: 57%; Vd [15]: 2.3 L/kg; bioavailability [16]: 10%; Vd [17]: 2.6 L/kg; Vd [18]: 0.98 L/kg; clearance [19]: 6.9 mL/min/kg; clearance [20]: 4.8 mL/min/kg; half-life [21]: 8.4 h
